Assay type in all cases: functional
Experiment [1] has as its system Mycobacterium tuberculosis. Kind of experiment: Antitubercular activity against rifampin-resistant Mycobacterium tuberculosis H37Rv ATCC 27294 assessed as growth inhibition after 16 to 24 hrs by microplate-Alamar Blue assay. A general note: Alamar Blue is a resazurin reagent that responds to reducing activity.
The test system of experiment [2] is Mycobacterium tuberculosis. The experiment in a line: Antitubercular activity against moxifloxacin-resistant Mycobacterium tuberculosis H37Rv ATCC 27294 assessed as growth inhibition after 16 to 24 hrs by microplate-Alamar Blue assay.
Experiment [3] concerns Mycobacterium tuberculosis. The experiment in a line: Antitubercular activity against isoniazid-resistant Mycobacterium tuberculosis H37Rv ATCC 27294 assessed as growth inhibition after 16 to 24 hrs by microplate-Alamar Blue assay.
Experiment [4] relates to Mycobacterium tuberculosis. Kind of experiment: Antitubercular activity against capreomycin-resistant Mycobacterium tuberculosis H37Rv ATCC 27294 assessed as growth inhibition after 16 to 24 hrs by microplate-Alamar Blue assay.

Converted amounts (≈) assume the structure as drawn. Some results are limits rather than exact numbers.

A word on the MIC: it is the lowest concentration found to suppress growth. As to `Fc1ccc(C(F)(F)F)cc1-c1csc(Nc2cc(Cl)cc(Cl)c2)n1`, the MIC in experiment [1] amounted to 9.7 µM (≈ 3.95 µg/mL); in experiment [2] it was 12 µM (≈ 4.89 µg/mL); in experiment [3], 7.1 µM (≈ 2.89 µg/mL); in experiment [4], 12 µM (≈ 4.89 µg/mL).
Take `Fc1ccc(C(F)(F)F)cc1-c1csc(Nc2ccc(Cl)cc2)n1`: the MIC in experiment [1] stood at 10.9 µM (≈ 4.06 µg/mL); in experiment [2] it was 15.5 µM (≈ 5.78 µg/mL); in experiment [3], 10.4 µM (≈ 3.88 µg/mL); in experiment [4] it was 17.4 µM (≈ 6.49 µg/mL).
For `CO[C@H]1/C=C/O[C@@]2(C)Oc3c(C)c(O)c4c(O)c(c(/C=N/N5CCN(C)CC5)c(O)c4c3C2=O)NC(=O)/C(C)=C\C=C\[C@H](C)[C@H](O)[C@@H](C)[C@@H](O)[C@@H](C)[C@H](OC(C)=O)[C@@H]1C` [RIFAMPIN] the same measures were > 4 µM, 0.14 µM (≈ 0.115 µg/mL), 0.06 µM (≈ 0.0494 µg/mL) and 0.05 µM (≈ 0.0411 µg/mL).
Take `NNC(=O)c1ccncc1` [ISONIAZID]: the MIC in experiment [1] is 0.85 µM (≈ 0.117 µg/mL); in experiment [2], 3.6 µM (≈ 0.494 µg/mL); in experiment [3], > 8 µM; in experiment [4], 0.81 µM (≈ 0.111 µg/mL).
The like results for `O=[N+]([O-])c1cn2c(n1)OC[C@@H](OCc1ccc(OC(F)(F)F)cc1)C2` [PRETOMANID] were, in that order, 0.51 µM (≈ 0.183 µg/mL), 0.88 µM (≈ 0.316 µg/mL), 0.43 µM (≈ 0.154 µg/mL) and 1.26 µM (≈ 0.453 µg/mL).

The values above are taken from ChEMBL document CHEMBL3102705, “Design, synthesis and investigation on the structure-activity relationships of N-substituted 2-aminothiazole derivatives as antitubercular agents” (Eur J Med Chem, 2014).
